Results published in US5132432A, “Chemically reactive pyrenyloxy sulfonic acid dyes” (Molecular Probes, Inc., priority 1989, dated 1992).
Where a name gives a salt, the structure may show the parent alone.

Columns and labels:
[1] = Comparison of spectral properties of reactive dyes, Table 1; format: physicochemical; settings: for ε: at first maximum; for Abs Max: first maximum; for Quantum Yield: in aqueous solution, grade in words; for % Emission at 514 nm: percent of maximum emission at 514 nm; for Emission Bandwidth / Emission Bandwidth [cm^-1]: full bandwidth at half peak height
Source text: A number of dyes have been proposed in the literature that can be excited and detected at wavelengths less than 500 nm. Several chemically reactive fluorophores that can be excited in the near ultraviolet and short wavelength visible region of the spectrum have been described. […] These proposed tracers are derived from naphthalene derivatives such as 5-dimethylaminonaphthalene-1-sulfonic acid (Dansyl) [Weber, Biochem. J. 41:145 (1952); Rinderknecht, Experientin 16:430 (1960)], 3-(isothiocyanato)naphthalene-1,5-disulfonic acid [Braunitzer, et al., Hoppe-Seyler's Z. Physiol. […] Chem. 358:505 (1977)], pyrene derivatives such as pyrene-1-butyric acid (PBA) [Malencik & Anderson, Biochemistry 11:3022 (1972)], 8-isothiocyanatopyrene-1,3,6-trisulfonic acid (IPTS) [Braunitzer,et al., Hoppe-Seyler's Z. Physiol. Chem. 354:1536 (1973)] and 8-hydroxypyrene-1,3,6-trisulfonyl chloride [Wolfbeis, Fresenies Z. Anal. Chem. 320:271 (1985)], stilbene derivatives such as 4-acetamido-4'-isothiocyanatostilbene-2,2'-disulfonic acid (SITS) [Cornelisse & Ploem, J. Histochem. Cytochem. 24:72 (1976)], and coumarin dyes such as 3-carboxy-7-hydroxycoumarin [Baker & Collis, J. Chem. Soc. 1949, S 12 (1949)], 7-hydroxy-4-methylumbelliferone-3-acetic acid (4-MUA) [Khalfan, et al., Biochem. J. 209:265 (1983)], 7-amino-4-methylcoumarin-3-acetic acid (AMCA) [Khalfan, et al., Histochem. J. 18:497 (1986)] and 7-diethylaminocoumarin [Staines, et al. (1988)].

[2] = Solubility in water / aqueous solution; settings: solubility of the reactive form of the dye; grade in words
[3] = Spectral properties (absorption/emission) of new pyrenyloxy sulfonic acid dyes, Table 4; format: physicochemical; settings: 50 mM aqueous potassium phosphate buffer at pH 8.0; for Em Max: uncorrected
Procedure: Stock solutions were prepared by accurately weighing and dissolving 5-10 mg samples of the compounds in 2.000 ml water. A 10 μl aliquot of the stock solution was diluted into 2.00 ml of 50 mM potassium phosphate buffer at pH 8.0. Absorbance solutions were prepared by further diluting 200 μl of the diluted stock solution to 2.000 ml with 50 mM potassium phosphate buffer at pH 8.0. Absorption data was collected on an IBM Model 9420 UV/Visible Spectrophotometer and extinction coefficients were determined by standard Beer's Law calculations.
Uncorrected fluorescence data was obtained on a Perkin-Elmer Model 650-40 Fluorescence Spectrophotometer equipped with a Perkin-Elmer/Hitachi 057 X-Y Recorder using a ten- to twentyfold dilution of the absorbance solutions. Fluorescence of the pyrenyloxy sulfonic acid dyes was determined for the reactive dyes and for their conjugates with model compounds by dissolving the dye at a concentration above 1×10^-8M in an appropriate solvent such as water, methanol, ethanol, or dimethylsulfoxide and measurement of the fluorescence in a suitable instrument, such as a fluorescence spectrometer or fluorescence microscope or flow cytometer. Fluorescence could also be observed for the dyes in solution by visual inspection with illumination by a suitable source that emits light at wavelengths of less than 420 nm.

[4] = background statement; cited from earlier work
[5] = physiological range (pH 6 to 8); cited from earlier work
[6] = Quantum yield relative to quinine sulfate; format: physicochemical; settings: in water
Source text: An estimate of the quantum yield of the dyes relative to quinine sulfate (quantum yield=0.55 in 1N sulfuric acid) was obtained by integrating the emission spectrum of the dye excited at the same wavelength and optical density as the standard.

[7] = cited from earlier work
[8] = first (longer-wavelength) maximum
[9] = second (shorter-wavelength) maximum

## O=C(O)CCCc1ccc2ccc3cccc4ccc1c2c34 [PBA, pyrene-1-butyric acid]
[1]
  Em. Max.: 377 nm
  ε: 45100 M⁻¹ cm⁻¹
  Abs Max: 341 nm
  Quantum Yield: low
  % Emission at 514 nm: 2 % of max
[2]
  Water Solubility: low

## CN(C)c1cccc2c(S(=O)(=O)O)cccc12 [Dansyl, 5-dimethylaminonaphthalene-1-sulfonic acid]
[1]
  Em. Max.: 578 nm
  ε: 4500 M⁻¹ cm⁻¹
  Abs Max: 340 nm
  Quantum Yield: low
[2]
  Water Solubility: low

## N#CCCCCCNC(=O)COc1cc(S(=O)(=O)O)c2ccc3c(S(=O)(=O)O)cc(S(=O)(=O)O)c4ccc1c2c43 [Compound 16]
[3]
  Emission Band-width: 49 nm
  Emission at 514 nm: 3.0 % of max
[3]; [8]
  Abs Max: 399 nm
[3]; [9]
  Abs Max: 377 nm

## O=S(=O)(O)c1cc(N=C=S)c2ccc3c(S(=O)(=O)O)cc(S(=O)(=O)O)c4ccc1c2c34 [IPTS, 8-isothiocyanatopyrene-1,3,6-trisulfonic acid]
[1]
  Em. Max.: 458 nm
  ε: 25600 M⁻¹ cm⁻¹
  Abs Max: 373 nm
  Emission Bandwidth: 78 nm
  Emission Bandwidth [cm^-1]: 3634 cm⁻¹
  Quantum Yield: low
  % Emission at 514 nm: 38 % of max
[2]
  Water Solubility: high

## O=C(CCCc1ccc2ccc3cccc4ccc1c2c34)ON1C(=O)CCC1=O [succinimidyl pyrene-1-butyrate]
[4]
  aqueous solubility / lipophilicity: quite lipophilic and insoluble in the aqueous solutions

## Cc1c(CC(=O)O)c(=O)oc2cc(O)ccc12 [Compound 4-MUA, 7-hydroxy-4-methylumbelliferone-3-acetic acid]
[1]
  Em. Max.: 454 nm
  ε: 19100 M⁻¹ cm⁻¹
  Abs Max: 360 nm
  Emission Bandwidth: 58 nm
  Emission Bandwidth [cm^-1]: 2668 cm⁻¹
  Quantum Yield: med.
  % Emission at 514 nm: 20 % of max
[5]
  sensitivity to solution pH: high sensitivity to solution pH
[2]
  Water Solubility: low

## C=CC(=O)NCCCCCNC(=O)COc1cc(S(=O)(=O)O)c2ccc3c(S(=O)(=O)O)cc(S(=O)(=O)O)c4ccc1c2c43 [Compound 19]
[3]
  Emission Band-width: 49 nm
  Emission at 514 nm: 2.9 % of max
[3]; [8]
  Abs Max: 399 nm

## NCCNC(=O)COc1cc(S(=O)(=O)O)c2ccc3c(S(=O)(=O)O)cc(S(=O)(=O)O)c4ccc1c2c43 [Compound 3, 1,3,6-Trisulfo-8-pyrenyloxyacetamido-1-(2-aminoethane), trisodium salt]
[3]
  Emission Band-width: 50 nm
  Emission at 514 nm: 4.9 % of max
[3]; [8]
  Abs Max: 399 nm

## CC(C)(C)OC(=O)N1CCC[C@H]1C(=O)NCCCCCNC(=O)COc1cc(S(=O)(=O)O)c2ccc3c(S(=O)(=O)O)cc(S(=O)(=O)O)c4ccc1c2c43 [Compound 15]
[3]
  Emission Band-width: 50 nm
  Emission at 514 nm: 3.0 % of max
[3]; [8]
  Abs Max: 399 nm
[3]; [9]
  Abs Max: 377 nm

## O=C(O)COc1cc(S(=O)(=O)[O-])c2ccc3c(S(=O)(=O)[O-])cc(S(=O)(=O)[O-])c4ccc1c2c43.[Na+].[Na+].[Na+] [Compound 2, 1,3,6-Trisulfo-8-pyrenyloxyacetic acid, trisodium salt]
[6]
  Quantum Yield: greater than 0.90
[3]
  Emission Band-width: 52 nm
  Emission at 514 nm: 5.8 % of max
  Em Max: 430 nm
[3]; at first maximum
  ε: 27.0 10^3 M^-1 cm^-1
[3]; at second maximum
  ε: 19.8 10^3 M^-1 cm^-1
[3]; [9]
  Abs Max: 374 nm

## [N-]=[N+]=Nc1ccc(C(=O)NCCCCCNC(=O)COc2cc(S(=O)(=O)[O-])c3ccc4c(S(=O)(=O)[O-])cc(S(=O)(=O)[O-])c5ccc2c3c54)cc1.[Na+].[Na+].[Na+] [Compound 20, N-(1,3,6-Trisulfo-8-pyrenyloxyacetyl)-N'-(4-azidobenzoyl)-1,5-pentanediamine, trisodium salt]
[3]
  Emission Band-width: 50 nm
  Emission at 514 nm: 3.5 % of max
  Em Max: 424 nm
[3]; [8]
  Abs Max: 400 nm

## NNC(=O)COc1cc(S(=O)(=O)O)c2ccc3c(S(=O)(=O)O)cc(S(=O)(=O)O)c4ccc1c2c43 [Compound 11, 1,3,6-Trisulfo-8-pyrenyloxyacethydrazide, free sulfonic acid]
[3]
  Emission Band-width: 51 nm
[3]; [8]
  Abs Max: 399 nm
[3]; [9]
  Abs Max: 377 nm

## O=C(COc1cc(S(=O)(=O)O)c2ccc3c(S(=O)(=O)O)cc(S(=O)(=O)O)c4ccc1c2c43)NCCO [Compound 10]
[3]
  Emission Band-width: 50 nm
  Emission at 514 nm: 3.3 % of max
[3]; [8]
  Abs Max: 399 nm
[3]; [9]
  Abs Max: 377 nm

## COC(=O)COc1cc(OCC(=O)OC)c2ccc3c(S(=O)(=O)O)cc(S(=O)(=O)O)c4ccc1c2c43 [Compound 21, Dimethyl 1,3-disulfo-6-carboxymethoxy-8-pyrenyloxyacetic acid, disodium salt]
[3]
  Emission Band-width: 55 nm
  Emission at 514 nm: 13.0 % of max
  Em Max: 447 nm
[3]; at first maximum
  ε: 24.5 10^3 M^-1 cm^-1
[3]; [8]
  Abs Max: 396 nm

## O=C1OC2(c3ccc(O)cc3Oc3cc(O)ccc32)c2ccccc21 [fluorescein]
[7]; at absorbance maximum
  extinction coefficient: 75,000 cm^-1 M^-1
[7]; beginning of visible emission
  emission onset: approximately 480 nm

## NCCCCCNC(=O)COc1cc(S(=O)(=O)O)c2ccc3c(S(=O)(=O)O)cc(S(=O)(=O)O)c4ccc1c2c43 [Compound 4, 1-(1,3,6-Trisulfo-8-pyrenloxyacetamido)-(5-aminopentane), trisodium salt]
[6]
  Quantum Yield: greater than 0.90
[3]
  Emission Band-width: 50 nm
  Emission at 514 nm: 3.9 % of max
  Em Max: 422 nm
[3]; at first maximum
  ε: 27.6 10^3 M^-1 cm^-1
[3]; at second maximum
  ε: 22.8 10^3 M^-1 cm^-1
[3]; [9]
  Abs Max: 377 nm

## Cc1c(CC(=O)ON2C(=O)CCC2=O)c(=O)oc2cc(N)ccc12 [succinimidyl ester of AMCA]
[4]
  aqueous solubility / lipophilicity: quite lipophilic and insoluble in the aqueous solutions

## N.N.N.NNC(=O)COc1cc(S(=O)(=O)O)c2ccc3c(S(=O)(=O)O)cc(S(=O)(=O)O)c4ccc1c2c43 [Compound 13, 1,3,6-Trisulfo-8-pyrenyloxyacethydrazide, triammonium salt]
[3]
  Emission Band-width: 50 nm
  Emission at 514 nm: 3.8 % of max
[3]; [8]
  Abs Max: 399 nm
[3]; [9]
  Abs Max: 376 nm

## Cc1c(CC(=O)O)c(=O)oc2cc(N)ccc12 [AMCA, 7-amino-4-methylcoumarin-3-acetic acid]
[1]
  Em. Max.: 442 nm
  ε: 15200 M⁻¹ cm⁻¹
  Abs Max: 354 nm
  Emission Bandwidth: 57 nm
  Emission Bandwidth [cm^-1]: 2858 cm⁻¹
  Quantum Yield: med.
  % Emission at 514 nm: 12 % of max
[2]
  Water Solubility: low

## CC(C)(C)OC(=O)N1CCC[C@H]1C(=O)NCCNC(=O)COc1cc(S(=O)(=O)[O-])c2ccc3c(S(=O)(=O)[O-])cc(S(=O)(=O)[O-])c4ccc1c2c43.[Na+].[Na+].[Na+] [Compound 14, N-(1,3,6-Trisulfo-8-pyrenyloxyacetyl)-N'-(N-t-butoxycarbonyl-L-prolyl)-1,2-ethanediamine, trisodium salt]
[6]
  Quantum Yield: greater than 0.90
[3]
  Emission Band-width: 49 nm
  Emission at 514 nm: 2.8 % of max
  Em Max: 422 nm
[3]; [8]
  Abs Max: 399 nm

## O=S(=O)(Cl)c1cc(O)c2ccc3c(S(=O)(=O)Cl)cc(S(=O)(=O)Cl)c4ccc1c2c34 [hydroxypyrenetrisulfonyl chloride, 8-hydroxypyrene-1,3,6-trisulfonyl chloride]
[5]
  sensitivity to solution pH: high sensitivity to solution pH
